Experiment: Solvent screen of MMAE
Format: physicochemical
Details: acetone, ethanol, and isopropanol
Procedure: A solvent screen of MMAE was conducted.

CCC(C)C(C(CC(=O)N1CCCC1C(OC)C(C)C(=O)NC(C)C(O)c1ccccc1)OC)N(C)C(=O)C(NC(=O)C(NC)C(C)C)C(C)C (stereo not shown) [MMAE, monomethyl auristatin E]
solubility of MMAE in solvent: good solubility
